# Data reported in patent publication US20060166969A1, “AMPA antagonists for the treatment of dizziness, including vertigo and Meniere's disorder” (priority 2005, published 2006).
# Legend:
# [1] = tested on: dizziness, including vertigo and Menière's disorder; test: Animal models for dizziness, including vertigo and Menière's disorder; format: in vivo; conditions: animal models not specified; no data given
# From the text: Animal models for dizziness, vertigo and Menière's disorder include, but are not limited
# Electronystagmography in rats (see Fischer, A. J. et al., “Electronystagmography in the laboratory rat”, Acta Otolaryngol., 88, 412-419,1979).
# Gentamycin induced nystagmus in guinea pigs (see Okuda, T. et al., “Inner ear changes with intracochlear gentamicin administration in Guinea pigs”, Laryngoscope, 114, 694-697, 2004).
# Unilateral peripheral vestibular deafferentation in guinea pigs (see Dutia, M. B. et al., “The opioid receptor antagonist, naloxone, enhances ocular motor compensation in guinea pig following peripheral vestibular deafferentation”, Exp. Neurol., 141,141-144,1996), or rats (see Guilding, C. et al., “11-Beta-hydroxysteroid dehydrogenase type 1 activity in medial vestibular nucleus and cerebellum after unilateral vestibular deafferentation in the rat”, Stress, 7(2),127-130, 2004).
# Unilateral labyrinthectomy in rats (see Johnston, A. R. et al., “Differential regulation of GABA(A) and GABA(B) receptors during vestibular compensation”, Neuroreport.;12(3), 597-600, 2001; and Inoue, S. et al., “Glutamate release in the rat medial vestibular nucleus following unilateral labyrinthectomy using in vivo microdialysis”, Brain Res., 991(1-2), 78-83, 2003). […]
# [2] = tested on: AMPA receptors; conditions: qualitative statement; affinity for AMPA receptors said to have been published; cited from earlier work
compound,measurement,setting,value
"Cc1nc2n(c1C)N=C(c1ccccc1)c1cc3c(cc1C2)OCO3 [8,9-dimethyl-5-phenyl-11H-1,3-dioxolo[4,5-h]imidazo[1,2-c][2,3]benzo-diazepine]","activity in animal models for dizziness, including vertigo and Menière's disorder",[1],active
same,AMPA receptor antagonistic activity,[2],AMPA receptor antagonistic activity
